Source: patent publication US11541050B2, “Pyrimidine derivatives for the treatment of viral infections” (JANSSEN SCIENCES IRELAND UC, priority 2011, dated 2023)

What was measured:
[1] = target: T1, human TLR8 (wild type sequence) (Homo sapiens, UniProt Q9NR97); assay: TLR8 cellular NFκB-luc reporter assay, wild type TLR8; format: cell-based; design: unit not given here; conditions: lowest effective concentration, wild type TLR8 (compounds 74 onward)
T1 construct: expressed in transfected cells; host or cells: HEK293
T1 sequence (Q9NR97 27-1041): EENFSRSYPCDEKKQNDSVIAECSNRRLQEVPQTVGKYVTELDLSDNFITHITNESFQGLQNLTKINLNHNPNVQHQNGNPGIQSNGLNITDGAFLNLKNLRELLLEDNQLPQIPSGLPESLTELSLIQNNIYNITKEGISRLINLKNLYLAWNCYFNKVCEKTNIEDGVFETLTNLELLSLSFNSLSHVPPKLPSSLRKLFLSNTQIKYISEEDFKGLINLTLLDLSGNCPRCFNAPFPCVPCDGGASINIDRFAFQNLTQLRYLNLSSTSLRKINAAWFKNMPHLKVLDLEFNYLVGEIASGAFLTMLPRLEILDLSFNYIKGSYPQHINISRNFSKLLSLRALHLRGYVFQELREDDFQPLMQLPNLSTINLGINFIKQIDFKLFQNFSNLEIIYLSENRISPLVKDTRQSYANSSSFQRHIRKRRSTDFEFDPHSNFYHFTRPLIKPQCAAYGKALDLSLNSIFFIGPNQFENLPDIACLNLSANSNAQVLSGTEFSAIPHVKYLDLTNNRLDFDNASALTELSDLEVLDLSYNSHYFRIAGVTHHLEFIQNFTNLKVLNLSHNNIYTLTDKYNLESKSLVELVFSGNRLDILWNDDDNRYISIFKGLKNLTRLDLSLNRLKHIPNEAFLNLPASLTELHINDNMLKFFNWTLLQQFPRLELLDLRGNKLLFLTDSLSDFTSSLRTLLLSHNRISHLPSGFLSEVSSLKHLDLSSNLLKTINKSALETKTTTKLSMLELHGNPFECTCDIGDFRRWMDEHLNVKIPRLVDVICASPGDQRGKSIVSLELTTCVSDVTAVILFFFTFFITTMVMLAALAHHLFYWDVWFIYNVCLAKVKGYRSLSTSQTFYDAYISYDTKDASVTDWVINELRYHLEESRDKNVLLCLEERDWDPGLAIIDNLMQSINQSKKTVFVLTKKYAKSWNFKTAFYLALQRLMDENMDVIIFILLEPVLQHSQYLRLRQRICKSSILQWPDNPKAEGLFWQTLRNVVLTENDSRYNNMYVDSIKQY
How it was run: (§1)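 First, HEK293 cells were co-transfected with TLR7 or TLR8 (native or LRR2-deletion) and NFκB-luc and cultured 48 h. Next, cells were incubated with compound for 6 h at 37 °C. Finally, luciferase was read; LEC came from dose-response curves run in quadruplicate.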

[2] = test system: HCV replicon in Huh-7 luc/neo cells; assay: Suppression of HCV replicon replication by conditioned media from compound-treated PBMC; format: cell-based, HCV type 1 b; conditions: Hepatitis C virus; conditioned media from compound-treated PBMC on Huh-7 luc/neo replicon cells (compounds 74 onward); read-out: PBMC HUH-7 EC50
Description: Activation of human TLR7 results in robust production of interferon by plasmacytoid dendritic cells present in human blood. The potential of compounds to induce interferon was evaluated by looking at the antiviral activity in the HCV replicon system upon incubation with conditioned media from peripheral blood mononuclear cells (PBMC). […] The assay utilized the stably transfected cell line Huh-7 luc/neo harboring an RNA encoding a bicistronic expression construct comprising the wild type NS3-NS5B regions of HCV type 1 b translated from an Internal Ribosome Entry Site (IRES) from encephalomyocarditis virus (EMCV), preceded by a reporter gene (Firefly-luciferase) and a selectable marker gene (neoR, neomycine phosphotransferase). The construct is flanked by 5′ and 3′ NTRs (non-translated regions) from HCV type 1 b. Continued culture of the replicon cells in the presence of G418 (neoR) is dependent on the replication of the HCV RNA. The stably transfected replicon cells that replicate HCV RNA autonomously and to high levels, encoding inter alia luciferase, were used for profiling of the conditioned cell culture media.
Briefly, PBMCs were prepared from buffy coats of at least two donors using a standard Ficoll centrifugation protocol. Isolated PBMCs were resuspended in RPMI medium supplemented with 10% human AB serum and 2×10^5 cells/well were dispensed into 384-well plates containing compounds (70 μL total volume). After overnight incubation, 10 μL of supernatant was transferred to 384-well plates containing 2.2×10^3 replicon cells/well in 30 μL (plated the day before). Following 24 hours of incubation, replication was measured by assaying luciferase activity using 40 μL/well Steady Lite Plus substrate (Perkin Elmer) and measured with ViewLux ultraHTS microplate imager (Perkin Elmer). […] Recombinant interferon α-2a (Roferon-A) was used as a standard control compound.

[3] = target: T2, human TLR7 (wild type sequence) (Homo sapiens, UniProt Q9NYK1); assay: TLR7 cellular NFκB-luc reporter assay, wild type TLR7; format: cell-based; design: unit not given here; conditions: lowest effective concentration, wild type TLR7 (compounds 74 onward)
T2 construct: expressed in transfected cells; host or cells: HEK293
T2 sequence (Q9NYK1 27-1049): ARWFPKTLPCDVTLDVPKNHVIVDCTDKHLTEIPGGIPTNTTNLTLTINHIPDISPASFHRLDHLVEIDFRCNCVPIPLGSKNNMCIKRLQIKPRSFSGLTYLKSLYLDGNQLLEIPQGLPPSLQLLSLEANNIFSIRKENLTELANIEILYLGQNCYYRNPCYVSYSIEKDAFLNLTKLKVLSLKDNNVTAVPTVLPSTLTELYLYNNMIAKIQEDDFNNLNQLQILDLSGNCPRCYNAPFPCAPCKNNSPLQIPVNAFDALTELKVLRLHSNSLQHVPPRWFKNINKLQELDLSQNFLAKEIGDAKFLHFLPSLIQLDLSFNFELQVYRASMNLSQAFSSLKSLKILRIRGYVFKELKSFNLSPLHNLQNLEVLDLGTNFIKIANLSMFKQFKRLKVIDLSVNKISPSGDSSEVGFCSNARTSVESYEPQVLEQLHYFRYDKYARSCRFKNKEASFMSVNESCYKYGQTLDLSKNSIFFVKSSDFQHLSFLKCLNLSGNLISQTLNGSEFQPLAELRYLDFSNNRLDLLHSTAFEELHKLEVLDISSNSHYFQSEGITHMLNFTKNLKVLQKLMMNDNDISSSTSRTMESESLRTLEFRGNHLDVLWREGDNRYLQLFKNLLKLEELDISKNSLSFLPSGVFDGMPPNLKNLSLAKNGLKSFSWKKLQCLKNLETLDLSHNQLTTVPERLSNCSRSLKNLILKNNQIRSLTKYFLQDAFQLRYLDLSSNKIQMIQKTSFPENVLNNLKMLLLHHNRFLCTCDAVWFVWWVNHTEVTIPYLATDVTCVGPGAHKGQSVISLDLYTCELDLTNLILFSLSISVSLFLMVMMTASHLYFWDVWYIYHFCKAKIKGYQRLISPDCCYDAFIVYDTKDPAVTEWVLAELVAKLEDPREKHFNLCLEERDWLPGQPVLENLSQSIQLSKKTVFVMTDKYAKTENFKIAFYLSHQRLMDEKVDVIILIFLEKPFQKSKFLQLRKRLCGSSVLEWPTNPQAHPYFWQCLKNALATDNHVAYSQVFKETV
How it was run: as §1

SMILES	TLR 8 wt LEC [1]	EC50 [2]	TLR 7 wt LEC [3]
CCCCNc1nc(N)ncc1OCc1ccc(C(F)(F)F)o1 [Compound 119]	6.120	193 nM	1.720
CCCCNc1nc(N)ncc1OCCCc1cc(OC)c(OC)c(OC)c1 [Compound 160]	2.710	634 nM	0.756
CCCCNc1nc(N)ncc1OCc1cncn1[C@H](C)c1ccccc1 [Compound 102]	5.690	12 nM	0.141
CCCCNc1nc(N)ncc1OCc1cc(C(F)(F)F)n(C)n1 [Compound 181]	1.210	96 nM	0.146
CCCCNc1nc(N)ncc1OCCOc1ccnc2ccsc12 [Compound 136]	2.030	275 nM	2.000
CCCCNc1nc(N)ncc1OCc1cccc(CC(=O)OC)c1 [Compound 137]	1.760	22800 nM	0.757
CCCCNc1nc(N)ncc1OCCOc1ccccc1C(F)(F)F [Compound 131]	>25	806 nM	1.700
CCCCNc1nc(N)ncc1OCc1cc2ccccc2n(CCC(C)C)c1=O [Compound 158]	>25	3310 nM	3.080
CCCC[C@@H](CCO)Nc1nc(N)ncc1OCc1ccc2ccccc2n1 [Compound 186]	0.680	65 nM	0.122
CCCCNc1nc(N)ncc1OCCCc1ccc(F)cc1F [Compound 107]	3.940	1590 nM	2.460
CCCC[C@H](Nc1nc(N)ncc1OCCCc1ccccc1)C(=O)OC [Compound 82]	13.590	14000 nM	4.420
CC[C@H](C)[C@@H](CO)Nc1nc(N)ncc1OCCCc1ccccc1 [Compound 115]	6.510	3730 nM	6.180
CCCCNc1nc(N)ncc1OCCOc1cccc(OC)c1OC [Compound 130]	6.560	103 nM	0.676
CCCCNc1nc(N)ncc1OCCCc1cccc(OC)c1 [Compound 146]	2.300	707 nM	1.230
CCCCNc1nc(N)ncc1OCCOc1cccc(OC)c1 [Compound 127]	2.050	256 nM	1.030
CCCCNc1nc(N)ncc1OCc1cc2ccccc2cn1 [Compound 166]	0.980	46 nM	0.128

SMILES	TLR 8 wt LEC [1]	EC50 [2]	TLR 7 wt LEC [3]
CCCCNc1nc(N)ncc1OCc1cc(OC2CCOC2)c(OC)cn1 (stereo not drawn) [Compound 174]	2.610	52 nM	0.447
CCCCNc1nc(N)ncc1OCCOc1cc(OC)cc(OC)c1 [Compound 129]	3.250	432 nM	2.090
CCCCNc1nc(N)ncc1OCCCc1ccc2c(c1)OCO2 [Compound 151]	1.860	188 nM	0.431
CCCCNc1nc(N)ncc1OCc1nc(-c2ccccc2)no1 [Compound 155]	4.560	3440 nM	2.660
CCCCNc1nc(N)ncc1OCc1ccc(F)cc1 [Compound 95]	2.010	726 nM	2.730
CCCCNc1nc(N)ncc1OCc1nn(C)c2cc(OC)c(OC)cc12 [Compound 183]	1.580	23 nM	0.056
CCC[C@@H](CCO)Nc1nc(N)ncc1OCc1nccc(OC)c1OC [Compound 87]	0.567	12 nM	0.013
CCCCNc1nc(N)ncc1OCCOc1cccnc1 [Compound 143]	0.880	443 nM	1.810
CCCC[C@@H](CCO)Nc1nc(N)ncc1OCCCc1ccccc1 [Compound 113]	2.240	251 nM	0.433
CCCCNc1nc(N)ncc1OCCCc1cccc(OC)c1OC [Compound 150]	4.310	689 nM	1.180
CCCCNc1nc(N)ncc1OCCCc1cc(OC)ccc1OC [Compound 148]	4.850	634 nM	0.691
CCCCNc1nc(N)ncc1OCCCc1cc(OC)c(OC)cc1OC [Compound 161]	3.480	629 nM	0.672
CCCCNc1nc(N)ncc1OCCCc1ccncc1 [Compound 177]	0.819	197 nM	0.795
CCCCNc1nc(N)ncc1OCc1c(C)noc1-c1ccccc1 [Compound 118]	3.710	976 nM	1.670
CCCCNc1nc(N)ncc1OCc1ccc(C(=O)OC)o1 [Compound 120]	3.910	273 nM	0.649
CCC[C@@H](CO)Nc1nc(N)ncc1OCc1nccc2ccccc12 [Compound 195]	0.056	3 nM	0.003
